In BindingDB's records for patent US10196374 (Astrazeneca, 2019):

Target: T1, Glucocorticoid receptor (Homo sapiens, UniProt P04150)
T1 sequence (P04150 whole entry): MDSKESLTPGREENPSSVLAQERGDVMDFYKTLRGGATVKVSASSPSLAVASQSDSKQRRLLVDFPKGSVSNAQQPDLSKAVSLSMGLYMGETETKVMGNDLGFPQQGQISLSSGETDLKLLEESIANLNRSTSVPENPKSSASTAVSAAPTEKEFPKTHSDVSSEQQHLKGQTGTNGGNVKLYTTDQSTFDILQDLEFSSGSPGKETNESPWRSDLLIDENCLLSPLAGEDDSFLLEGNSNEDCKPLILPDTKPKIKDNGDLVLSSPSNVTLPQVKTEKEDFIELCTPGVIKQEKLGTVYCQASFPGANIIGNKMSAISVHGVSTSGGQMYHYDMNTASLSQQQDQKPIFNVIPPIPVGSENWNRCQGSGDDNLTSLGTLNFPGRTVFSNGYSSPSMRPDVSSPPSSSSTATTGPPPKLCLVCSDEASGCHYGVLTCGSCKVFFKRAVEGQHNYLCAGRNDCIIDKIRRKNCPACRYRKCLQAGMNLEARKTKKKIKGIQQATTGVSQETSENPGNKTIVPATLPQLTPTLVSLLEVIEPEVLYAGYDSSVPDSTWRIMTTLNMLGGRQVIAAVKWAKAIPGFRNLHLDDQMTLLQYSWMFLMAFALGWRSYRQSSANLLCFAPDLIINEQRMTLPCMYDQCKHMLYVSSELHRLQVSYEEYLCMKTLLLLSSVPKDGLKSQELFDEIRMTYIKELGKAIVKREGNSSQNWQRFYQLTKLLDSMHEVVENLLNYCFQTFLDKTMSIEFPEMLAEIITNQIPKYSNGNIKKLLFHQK
Experiment: GRE Antagonist Assay
Source text: The generated cell line allows for identification of compounds showing antagonist activity at the human glucocorticoid receptor (GR) via reduction of LacZ gene expression. Dexamethasone-activated GR binds to the Glucocorticoid Response Element (GRE) in the promoter of the LacZ gene and transcription is initiated.

`CC(C)[C@H](NC(=O)C(C)(F)F)[C@H](Oc1ccc2c(cnn2-c2ccc(=O)n(C)c2)c1)c1ccccc1` [US10196374, Example 1] was tested. Which IC50 did it give?
Its IC50 is 158 nM.
